Data reported in US20230094832A1, “ANTIBODY-DRUG CONJUGATE COMPRISING IMMUNE CHECKPOINT INHIBITOR AND EXOSOME SECRETION INHIBITOR, AND PHARMACEUTICAL COMPOSITION COMPRISING SAME” (Research & Business Foundation Sungkyunkwan University, priority 2020, published 2023).

Legend:
[1] = system: melanoma cell line B16F10; assay: Cytotoxicity evaluation by MTT assay; assay type: cell-based; conditions: B16F10 cells, 24 hours treatment at each concentration, FIG. 4
Description: In order to evaluate the cytotoxicity of Ab-VC-AMB prepared in Example 1, a melanoma cell line B16F10 (1×10^4) was attached to a 96-well plate, and after 24 hours, and the cell line was treated with Ab, AMB, AMB+Ab, and Ab-VC-AMB at each concentration, respectively. After 24 hours, the number of living cells was calculated by MTT assay. For this, 5 mg/ml MTT reagent was diluted 1/10 in the medium, and then 200 μl was added to each well of the 96-well plate. After the cells were cultured in an incubator for 1.5 hours, the MTT reagent was removed, and 200 μl of DMSO was added to each well of the 96-well plate. After the cells were cultured at room temperature for 30 minutes, cell viability was calculated by confirming the absorbance at 570 nm.

[2] = set-up: species or system mice; conditions: mouse, in vivo, iv
Description: (§1) In order to evaluate the therapeutic efficacy of Ab-VC-AMB prepared in Example 1 in a disease animal model, a cancer animal model was produced by subcutaneously inoculating B16F10 (1×10^6 cells), which is a melanoma cell line, into mice and allowing tumors to grow for 10 days (Day 0). Thereafter, on days 1, 4, 7 and 10, Ab-VC-AMB, saline, an antibody (Ab) or AMB was injected intravenously into the cancer animal model (Ab 5 mg/kg, AMB 10 mg/kg, Ab-VC-AMB 5 mg/kg), and then the therapeutic efficacy was evaluated for 11 days.

[3] = system: major organs (liver, lungs, spleen, kidneys, and heart) and cancer tissue; assay: Histopathological evaluation by H&E staining; assay type: in vivo, mice; conditions: cancer tissue compared to the control, FIG. 8
Description: A histopathological evaluation was performed by removing major organs and cancer tissue and staining the tissue by a hematoxylin and eosin (H&E) staining method. For this purpose, the major organs (liver, lungs, spleen, kidneys, and heart) and cancer tissue were removed, placed in a cassette, and fixed in a fixative solution. Then, after a paraffin block was prepared, a sample was prepared with a thickness of 6 μm. After the sample was stained with a Harris hematoxylin staining solution and an eosin-phloxine staining solution, the sample was observed through a slide scanner.

[4] = system: PD-L1 on the surface of exosomes; assay: Exosomal PD-L1 quantified by ELISA; assay type: in vivo, mice; conditions: plasma exosomes after efficacy study, compared to the other groups, FIG. 10
Description: (§2) To evaluate the ability of Ab-VC-AMB prepared in Example 1 to inhibit the secretion of exosomes, after the animal model for which the therapeutic efficacy evaluation was completed was sacrificed, plasma was isolated, and exosomes were isolated and extracted using an exosome isolation kit (Invitrogen total exosome isolation reagent). The amount of protein was measured by performing BCA analysis (bicinchoninic acid assay) on the isolated exosomes. Albumin standards diluted to various concentrations and 150 μl of an unknown sample whose protein amount was not known were put into a 96-well plate, respectively. 150 μl of a working reagent containing bicinchoninic acid from a BCA protein […] kit (Pierce) was placed in each well containing each sample, and the resulting mixture was shaken and mixed well, and then incubated at 37° C. for 2 hours. Thereafter, the protein concentration of exosomes was calculated by measuring the absorbance at 562 nm using a microplate reader.
In addition, PD-L1 on the surface of exosomes, which is a factor known to suppress the activity of T cells, was quantified through ELISA analysis. A 96-well plate was coated with 2 μg/ml PD-L1 antibody incubated at 4° C. for 16 hours […]. […] Absorbance at 450 nm was measured using a microplate reader.

exosomes in plasma = assay: Exosomal total protein amount in plasma exosomes (BCA analysis); assay type: in vivo, mice; conditions: plasma exosomes after efficacy study, compared to the Ab control, FIG. 9
Description: as §2

B16F10 melanoma tumors = assay: Therapeutic efficacy (tumor volume) in B16F10 cancer animal model; assay type: in vivo; conditions: B16F10 mice, FIGS. 5 and 6
Description: as §1

SMILES | cytotoxicity (cell viability) [1] | changes in body weight (toxicity) [2] | cell death area in the cancer tissue (H&E) [3] | exosomal PD-L1 level [4] | amount of exosomal protein (exosomes in plasma) | volume of cancer compared to the Ab control (B16F10 melanoma tumors; i.v. on days 1, 4, 7 and 10, Ab-VC-AMB 5 mg/kg vs Ab 5 mg/kg, 11 days) | cancer volume compared to the control to which saline was administered (B16F10 melanoma tumors; i.v. on days 1, 4, 7 and 10, Ab-VC-AMB 5 mg/kg, evaluated for 11 days) [%]
COC(c1ccccc1)(c1ccccc1)[C@H](Oc1nc(C)cc(C)n1)C(=O)O [AMB, ambrisentan, reference compound] | does not have a direct relationship with toxicity affecting cells | – | – | – | – | – | –
COC(c1ccccc1)(c1ccccc1)C(Oc1nc(C)cc(C)n1)C(=O)OCc1ccc(NC(=O)C(CCCNC(N)=O)CC(=O)C(NC(=O)CCCCCN2C(=O)CC(SC)C2=O)C(C)C)cc1 (centres unmarked) [Ab-VC-AMB] | high biocompatibility | does not show toxicity | a large cell death area in the cancer tissue was observed compared to the control | tendency to decrease remarkably | statistically significant low amount of exosomal protein compared to the Ab control | about 45% | 24
